These results are taken from patent US5952339A, “Pharmaceutical compositions and methods of using nicotinic antagonists for treating a condition or disorder characterized by alteration in normal neurotransmitter release” (priority 1998, dated 1999).

Read-outs that look alike come from different tables or passages of the source.

For assay [1], the system named is dopamine release. Briefly: Determination of receptor activation/inhibition: dopamine release. Type of assay: biochemical. As to conditions: for Emax (dopamine release): amount released relative to (S)-(-)-nicotine or TMA. As for the experimental part: Determination of Receptor Activation/Inhibition and Dopamine Release
Dopamine release was measured using the techniques described in U.S. Pat. No. 5,597,919 to Dull et al. Release is expressed as a percentage of release obtained with a concentration of (S)-(-)-nicotine resulting in maximal effects. Reported EC50 values are expressed in nM, and Emax values represent the amount released relative to (S)-(-)-nicotine or tetramethylammonium ion (TMA), on a percentage basis.
(§1) Reported IC50 values are expressed in nM and represent the concentration resulting in 50% inhibition of agonist induced receptor activation. Emax values represent the amount released relative to (S)-(-)-nicotine on a percentage basis.

The target in assay [2] is T1, CNS nicotinic receptors (Rattus norvegicus, UniProt P09483+P12390).
T1 construct: from tissue
T1 sequence (P09483 31-630): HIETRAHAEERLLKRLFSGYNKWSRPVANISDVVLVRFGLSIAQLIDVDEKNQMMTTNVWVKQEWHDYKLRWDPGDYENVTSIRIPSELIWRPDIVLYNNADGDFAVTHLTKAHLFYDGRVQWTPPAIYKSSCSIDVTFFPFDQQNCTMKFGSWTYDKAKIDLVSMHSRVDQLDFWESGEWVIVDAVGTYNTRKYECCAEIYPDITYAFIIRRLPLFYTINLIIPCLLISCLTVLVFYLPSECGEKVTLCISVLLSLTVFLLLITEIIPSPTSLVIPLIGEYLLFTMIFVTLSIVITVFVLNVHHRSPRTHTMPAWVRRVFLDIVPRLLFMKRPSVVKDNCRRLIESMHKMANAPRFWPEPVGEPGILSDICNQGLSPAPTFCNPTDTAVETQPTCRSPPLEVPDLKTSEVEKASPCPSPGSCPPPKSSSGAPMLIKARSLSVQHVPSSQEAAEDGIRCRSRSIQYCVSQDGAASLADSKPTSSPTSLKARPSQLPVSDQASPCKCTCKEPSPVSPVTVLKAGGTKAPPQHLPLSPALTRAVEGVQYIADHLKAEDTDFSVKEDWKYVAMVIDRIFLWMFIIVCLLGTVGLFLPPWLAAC
T1 sequence (P12390 25-500): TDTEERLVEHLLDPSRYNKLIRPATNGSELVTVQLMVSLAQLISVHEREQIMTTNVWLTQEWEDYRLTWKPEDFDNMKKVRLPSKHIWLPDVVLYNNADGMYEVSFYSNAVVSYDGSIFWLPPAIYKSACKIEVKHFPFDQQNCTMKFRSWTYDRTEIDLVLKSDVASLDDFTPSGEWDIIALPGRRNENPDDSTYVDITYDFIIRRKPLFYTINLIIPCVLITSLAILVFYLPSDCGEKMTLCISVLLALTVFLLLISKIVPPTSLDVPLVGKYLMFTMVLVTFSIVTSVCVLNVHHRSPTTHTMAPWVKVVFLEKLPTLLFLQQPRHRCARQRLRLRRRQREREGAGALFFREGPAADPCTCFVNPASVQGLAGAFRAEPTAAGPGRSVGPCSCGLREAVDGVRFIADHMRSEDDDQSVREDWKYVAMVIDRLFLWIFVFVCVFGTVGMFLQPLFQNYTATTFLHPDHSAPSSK
Briefly: Determination of binding to relevant receptor sites. The method, then: Determination of Binding to Relevant Receptor Sites
Binding of the compounds to relevant receptor sites was determined in accordance with the techniques described in U.S. Pat. No. 5,597,919 to Dull et al. Inhibition constants (Ki values), reported in nM, were calculated from the IC50 values using the method of Cheng et al., Biochem, Pharmacol. 22:3099 (1973).

The target of assay [3] is T2, ganglia-type receptors (Rattus norvegicus, UniProt P04757+P12392).
T2 construct: endogenous in cells
T2 sequence (P04757 26-499): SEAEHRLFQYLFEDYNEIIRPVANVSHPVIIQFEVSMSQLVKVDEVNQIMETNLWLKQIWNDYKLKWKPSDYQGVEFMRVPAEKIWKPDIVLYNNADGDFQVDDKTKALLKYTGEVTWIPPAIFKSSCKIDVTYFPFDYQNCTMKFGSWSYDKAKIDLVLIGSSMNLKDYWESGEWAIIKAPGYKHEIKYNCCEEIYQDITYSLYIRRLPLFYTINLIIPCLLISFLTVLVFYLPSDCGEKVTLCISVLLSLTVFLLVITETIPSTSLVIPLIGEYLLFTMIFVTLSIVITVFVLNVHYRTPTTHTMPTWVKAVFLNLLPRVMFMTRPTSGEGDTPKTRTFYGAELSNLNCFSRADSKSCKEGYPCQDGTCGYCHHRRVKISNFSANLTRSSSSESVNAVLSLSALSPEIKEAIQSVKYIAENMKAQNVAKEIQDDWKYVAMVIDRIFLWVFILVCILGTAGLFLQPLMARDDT
T2 sequence (P12392 21-495): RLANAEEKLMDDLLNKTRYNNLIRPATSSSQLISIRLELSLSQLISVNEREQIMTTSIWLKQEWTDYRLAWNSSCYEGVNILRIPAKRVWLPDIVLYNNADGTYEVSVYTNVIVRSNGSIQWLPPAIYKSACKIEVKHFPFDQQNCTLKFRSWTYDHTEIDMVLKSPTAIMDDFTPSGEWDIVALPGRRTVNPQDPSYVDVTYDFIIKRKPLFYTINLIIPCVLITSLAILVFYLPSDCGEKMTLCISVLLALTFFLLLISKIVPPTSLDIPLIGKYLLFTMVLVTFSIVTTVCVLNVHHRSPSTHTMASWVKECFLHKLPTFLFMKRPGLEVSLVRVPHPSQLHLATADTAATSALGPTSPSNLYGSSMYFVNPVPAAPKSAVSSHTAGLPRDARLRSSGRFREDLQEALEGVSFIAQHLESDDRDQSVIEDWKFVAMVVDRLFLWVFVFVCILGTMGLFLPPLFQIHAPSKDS
Briefly: Determination of interaction with ganglion receptors. Type of assay: biochemical. The settings on record: percentage of the maximal activation induced by (S)-(-)-nicotine. As for the experimental part: Determination of Interaction with Ganglion Receptors
The determination of the interaction of the compounds with ganglionic receptors was carried out in accordance with the techniques described in U.S. Pat. No. 5,597,919 to Dull et al. The maximal activation for individual compounds (Emax) was determined as a percentage of the maximal activation induced by (S)-(-)-nicotine. Reported Emax values represent the amount released relative to (S)-(-)-nicotine on a percentage basis.

Assay [4] concerns the target T3, muscle-type receptors (Homo sapiens, UniProt P02708+P07510+Q07001).
T3 construct: endogenous in cells
Briefly: Determination of interaction with muscle receptors. The assay is classed as biochemical. The settings on record: percentage of the maximal activation induced by (S)-(-)-nicotine. The method, then:
Determination of Interaction with Muscle Receptors
The determination of the interaction of the compounds with muscle receptors was carried out in accordance with the techniques described in U.S. Pat. No. 5,597,919 to Dull et al. The maximal activation for individual compounds (Emax) was determined as a percentage of the maximal activation induced by (S)-(-)-nicotine. Reported Emax values represent the amount released relative to (S)-(-)-nicotine on a percentage basis.

The target of assay [5] is T1, CNS nicotinic receptors. Briefly: Isotopic rubidium ion release. Type of assay: biochemical. As to conditions: for Emax: read-out: Emax (rubidium ion release). As for the experimental part:
Isotopic rubidium release was measured using the techniques described in Bencherif et al., JPET, 279: 1413-1421 (1996). Reported EC50 values are expressed in nM, and Emax values represent the amount of rubidium ion released relative to 300 uM tetranmethylammonium ion, on a percentage basis.
as §1

Where [6] appears, read: calculated from IC50 values using the method of Cheng et al., read-out: Ki.
The mark [7] stands for this setting: read-out: EC50 (rubidium ion release).

T3 sequence (P02708 21-457): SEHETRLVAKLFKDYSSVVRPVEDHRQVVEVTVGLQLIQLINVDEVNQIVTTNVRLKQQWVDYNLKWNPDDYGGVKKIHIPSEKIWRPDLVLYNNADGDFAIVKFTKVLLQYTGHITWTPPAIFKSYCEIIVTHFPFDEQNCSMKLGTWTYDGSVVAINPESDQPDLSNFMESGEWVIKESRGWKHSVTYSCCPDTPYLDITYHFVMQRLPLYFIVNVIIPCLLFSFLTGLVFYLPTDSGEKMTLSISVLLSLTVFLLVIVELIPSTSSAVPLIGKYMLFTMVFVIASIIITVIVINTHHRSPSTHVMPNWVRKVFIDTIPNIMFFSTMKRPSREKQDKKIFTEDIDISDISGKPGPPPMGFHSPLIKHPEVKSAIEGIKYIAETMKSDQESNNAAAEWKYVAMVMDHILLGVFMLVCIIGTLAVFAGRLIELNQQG
T3 sequence (P11230 24-501, further chain): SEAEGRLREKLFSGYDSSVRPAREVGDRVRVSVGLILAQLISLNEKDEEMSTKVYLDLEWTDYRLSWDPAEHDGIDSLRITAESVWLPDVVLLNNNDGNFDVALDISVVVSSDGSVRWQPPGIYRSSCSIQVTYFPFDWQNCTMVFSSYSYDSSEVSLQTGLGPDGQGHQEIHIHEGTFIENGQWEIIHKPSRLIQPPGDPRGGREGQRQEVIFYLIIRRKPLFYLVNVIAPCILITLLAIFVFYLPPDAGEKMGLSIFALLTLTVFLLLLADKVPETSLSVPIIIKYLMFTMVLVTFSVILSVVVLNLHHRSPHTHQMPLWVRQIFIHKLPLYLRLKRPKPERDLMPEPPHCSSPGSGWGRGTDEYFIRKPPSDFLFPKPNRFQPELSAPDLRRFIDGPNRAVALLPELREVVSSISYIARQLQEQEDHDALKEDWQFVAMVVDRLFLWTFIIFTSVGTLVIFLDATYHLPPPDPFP
T3 sequence (P07510 23-517): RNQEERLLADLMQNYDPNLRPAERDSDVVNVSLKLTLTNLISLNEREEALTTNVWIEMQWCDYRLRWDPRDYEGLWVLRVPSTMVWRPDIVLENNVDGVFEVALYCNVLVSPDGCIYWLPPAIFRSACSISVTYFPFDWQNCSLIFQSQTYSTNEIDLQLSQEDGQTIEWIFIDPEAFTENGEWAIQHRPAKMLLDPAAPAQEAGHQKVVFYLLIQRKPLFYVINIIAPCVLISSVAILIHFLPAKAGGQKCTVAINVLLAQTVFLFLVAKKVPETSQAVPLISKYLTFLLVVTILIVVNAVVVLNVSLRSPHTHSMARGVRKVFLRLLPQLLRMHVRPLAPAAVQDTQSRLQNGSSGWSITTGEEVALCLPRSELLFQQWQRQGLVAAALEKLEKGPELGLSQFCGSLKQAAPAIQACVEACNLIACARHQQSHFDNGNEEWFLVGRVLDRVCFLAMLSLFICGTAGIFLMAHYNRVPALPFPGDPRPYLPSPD
T3 sequence (Q07001 22-517): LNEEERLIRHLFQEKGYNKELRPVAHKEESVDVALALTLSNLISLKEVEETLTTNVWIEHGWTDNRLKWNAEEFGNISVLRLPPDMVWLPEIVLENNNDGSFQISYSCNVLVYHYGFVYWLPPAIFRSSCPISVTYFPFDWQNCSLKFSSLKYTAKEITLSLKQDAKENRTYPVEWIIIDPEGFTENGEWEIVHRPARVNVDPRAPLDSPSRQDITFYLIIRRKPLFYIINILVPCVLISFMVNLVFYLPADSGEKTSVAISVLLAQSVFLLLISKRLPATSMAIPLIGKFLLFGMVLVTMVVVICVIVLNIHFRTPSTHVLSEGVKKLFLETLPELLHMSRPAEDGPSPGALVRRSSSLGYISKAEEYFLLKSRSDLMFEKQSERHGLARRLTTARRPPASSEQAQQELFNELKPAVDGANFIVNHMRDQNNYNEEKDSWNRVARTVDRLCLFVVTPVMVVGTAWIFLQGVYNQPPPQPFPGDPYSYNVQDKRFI

One may read the Ki as the equilibrium dissociation constant of an inhibitor or competing ligand from its target. In general, Emax refers to the maximal effect, on the per cent scale that the assay sets. On to `c1cncc(C2C3CC4CC(C3)CN2C4)c1` (stereo not drawn) [Sample No. 1, 1-aza-2-(3-pyridyl)-tricyclo[3.3.1.1^3,7]decane], for which, in assay [1], the “Emax (dopamine release)” value turned out to be 0%. The Ki in assay [2] (setting [6]) was 15 nM. Also, the Emax in assay [3] came to 27%; in assay [4], 21%.
Broadly, the EC50 is the concentration that produces a half-maximal response. In the case of `Brc1cncc(C2C3CC4CC(C3)CN2C4)c1` (stereo not drawn) [Sample No. 2, 1-aza-2-[5-bromo(3-pyridyl)]tricyclo[3.3.1.1^3,7]decane], the EC50 in assay [5] (setting [7]) was more than 100000 nM. For the same compound, the maximal response (Emax) is 0% in assay [5], 50% in assay [3] and 32% in assay [4]. The “Emax (dopamine release)” value in assay [1] is reported as 0%. In assay [2], this compound had a Ki of 2 nM.
Compound `Cl.Cl.Cl.Nc1cncc(C2C3CC4CC(C3)CN2C4)c1` (stereo not drawn) [Sample No. 3, 1-aza-2-[5-amino-(3-pyridyl)]tricyclo[3.3.1.1^3,7]decane trihydrochloride] returned a concentration giving a half-maximal response (EC50) in assay [5] of more than 100000 nM. Further, the Emax in assay [5] was determined as 0%; in assay [3], 17%; in assay [4], 75%. In assay [1], the “Emax (dopamine release)” value was determined as 0%. Further, the Ki in assay [2] (setting [6]) was 44 nM.
In general, IC50 refers to the midpoint of a concentration-inhibition curve. Lower therefore signals higher potency. Turning to `CCOc1cncc(C2C3CC4CC(C3)CN2C4)c1` (stereo not drawn) [Sample No. 4, 1-aza-2-[5-ethoxy-(3-pyridyl)]-tricyclo-[3.3.1.1^3,7]decane], the IC50 in assay [5] came to 630 nM; in assay [1] (50% inhibition of agonist induced receptor activation) it was 846 nM. Further, in assay [5] (setting [7]), the EC50 is more than 100000 nM. Also, the maximal response (Emax) worked out at 0% in assay [5], 0% in assay [3] and 22% in assay [4]. For the same compound, the “Emax (dopamine release)” value in assay [1] amounted to 0%. The compound further returned an inhibitory constant (Ki) in assay [2] of 1 nM.
For the compound `CC(C)Oc1cncc(C2C3CC4CC(C3)CN2C4)c1` (stereo not drawn) [Sample No. 5, 1-aza-2-[5-isopropoxy-(3-pyridyl)]tricyclo[3.3.1.1^3,7]decane], the EC50 in assay [5] (setting [7]) was more than 100000 nM. Further, the values for the Emax in assay [5], in assay [3] and in assay [4] were 0%, 7% and 114%, respectively. In assay [1], the “Emax (dopamine release)” value is 0%. The Ki in assay [2] turned out to be 24 nM.
